Legend:
[1] = tested on: Fairview (Tulbagh) ryegrass resistant to glyphosate, paraquat, and ACCase-inhibitors; experiment: Control of resistant ryegrass by glyphosate, metsulfuron-methyl and two additives (Table 25); type: in vivo; conditions: Trial 1: glyphosate (ROUNDUP) 0.5 L/ha
Method: This example was conducted on one of the most resistant ryegrass types in the world, ryegrass resistant to non-selective herbicides, e.g., Fairview (Tulbagh), which is resistant to glyphosate, paraquat, and ACCase-inhibitors. In this example, the addition of metsulfuron-methyl (BRUSH-OFF®) at 5 and 10 g ha^−1, with 1% ammonium sulfate-based adjuvant (ADD-UP®) to 0.5 L Roundup improved control by 44% (e.g., 50% to 94%).
• Biotype: Fairview (Tulbagh) resistant to glyphosate, paraquat, and ACCase-inhibitors. • Growth Stage: 10-15 leaf stage • Conditions: Cool and sunny • 15 Volume rate: 200 L ha^−1 • glyphosate (ROUNDUP): 360 g ai L^−1

[2] = tested on: non-glyphosate resistant Conyza (Welgevallen-paraquat resistant); experiment: Control of hairy fleabane by glyphosate, metsulfuron-methyl and two additives (Table 24); type: in vivo, Conyza bonariensis
Method: This example included the same treatments as used in Example 11, except the treatments were carried out on a glyphosate sensitive biotype of Kleinskraalhans (Conyza bonariensis).
• Biotype: Non-glyphosate resistant Conyza (Welgevallen-paraquat resistant) • Growth Stage: 10-15 leaf stage • Conditions: Cool and sunny • Volume rate: 200 L ha^−1 • glyphosate (ROUNDUP): 360 g a.i. L^−1

[3] = tested on: infected GS3 embryos with the GAT construct; experiment: Glyphosate selection of embryos infected with the GAT construct; type: cell-based, maize; conditions: media with 1.0 mM or 2.0 mM glyphosate, about 40 days culture
Method: (§1) A glyphosate kill curve was established by testing non-transformed embryos response on media with different levels of glyphosate. GS3 embryos were isolated from an immature ear and placed onto media containing glyphosate at 0.0, 0.5, 1.0, and 2.0 mM. After about 40 days culture, the response of the embryos were observed and recorded. Similarly, infected GS3 embryos with the GAT construct were placed onto media containing glyphosate at 0.0, 0.5, 1.0, and 2.0 mM. After about 40 days culture, the response of the infected embryos were observed and recorded (FIG. 7).

GAT-HRA soybeans = experiment: Postemergence greenhouse spray of soybeans, visual injury (Table 11); conditions: 8960 g/ha
Method: (§2) Young regenerated transgenic plants were sprayed with 1× glyphosate (1× rate of glyphosate is 1120 g/ha of glyphosate isopropylamine) to cull segregants. Four replications were performed for each treatment. Plants were then treated with various herbicides, including glyphosate and ALS-inhibitor herbicides.
(§3) Six soybean seeds from each variety to be assayed were planted 1 cm deep in 5.5 (13.97 cm) inch square plastic container of a synthetic growth medium. […] When possible, containers were thinned to two uniform plants. Non-transgenic lines were thinned to two uniform plants per container.
(§4) Results are expressed below in Table 11 as the mean of four replications.

[4] = tested on: non-transgenic control soybeans; experiment: as above; conditions: 8960 g/ha
Method: as §2, §3, §4

[5] = tested on: parent elite stiff stalk inbred corn; experiment: Postemergence effect of ALS herbicides, glyphosate and glufosinate (fresh weight, visual injury); conditions: 200 g/ha (glyphosate 3472 g ae/ha, glufosinate ammonium 1870 g/ha), mean of four replications
[6] = tested on: non-transformed GS3 embryos; experiment: Glyphosate kill curve on culture media; type: cell-based, maize; conditions: about 40 days culture
Method: as §1

[7] = tested on: heterozygous GAT-HRA corn; experiment: Postemergence effect of ALS herbicides, glyphosate and glufosinate (fresh weight, visual injury); conditions: 200 g/ha (glyphosate 3472 g ae/ha, glufosinate ammonium 1870 g/ha), mean of four replications
[8] = tested on: untransformed Coker 312 cotton; experiment: Greenhouse over the top herbicide spray of cotton; type: in vivo, Gossypium hirsutum; conditions: glyphosate over the top at 4-6 leaf stage, 1.5 lb acid equivalent per acre; 2 weeks after application
Description: (§5) Transformed cotton plants were rooted and then transferred to soil for further growth. Plants were then subjected to herbicide spray treatments in a greenhouse. […] Untransformed Coker 312 control plants were dead 2 weeks after glyphosate application. […] Plants transformed with both GAT and HRA were further subjected to an “over the top” application of the sulfonylurea herbicide rimsulfuron at a rate of 16 g active ingredient/hectare. […] In further experiments 32 g ai/ha rimsulfuron were applied to the cotton.

[9] = tested on: GAT-HRA transgenic cotton plants; experiment: Greenhouse over the top herbicide spray of cotton; type: in vivo, Gossypium hirsutum; conditions: glyphosate over the top at 4-6 leaf stage, 1.5 lb acid equivalent per acre; 14 days after application
Description: as §5

[10] = tested on: Fairview (Tulbagh) ryegrass resistant to glyphosate, paraquat, and ACCase-inhibitors; experiment: Control of resistant ryegrass by glyphosate and representative SU's (Table 26); type: in vivo; conditions: Trial 2: glyphosate (SCAT) 6 L/ha; sprayed with 1% ADD-UP
Description: In this example, four different SU's were applied together with glyphosate (SCAT®) on the resistant ryegrass. The results as to the best SU partner for glyphosate were inconclusive, but the average benefit of applying an SU with glyphosate on herbicide resistant ryegrass was 39% (e.g., 34% control with glyphosate (SCAT®) only and 57-83% control with glyphosate (SCAT®) plus metsulfuron-methyl (BRUSH-OFF®), chlorsulfuron (GLEAN®), or triasulfuron (LOGRAN®)).
• Biotype: Fairview (Tulbagh) resistant to glyphosate, paraquat, and ACCase-inhibitors. • Growth Stage: 4 leaf stage • Conditions: Cool and sunny • Volume rate: 200 L ha^−1 • All treatments sprayed with 1% ADD-UP

[11] = tested on: non-glyphosate resistant ryegrass (70-04); experiment: Control of ryegrass by glyphosate, metsulfuron-methyl and two additives (Table 23); type: in vivo; conditions: Trial 1: glyphosate (SCAT) 0.5 L/ha
Method: The example was conducted on non-glyphosate resistant ryegrass. As provided in Table 23, all treatments that included glyphosate [180 g a.i. L ha^−1 (0.5 L glyphosate (SCAT®))] plus metsulfuron-methyl (BRUSH-OFF®) (5 and 10 g ha^−1) gave 100% control of the ryegrass.
• Biotype: non-glyphosate resistant ryegrass (70-04) • Population profile: Rup 0.25 control (%) 6.25 • Rup 0.5 control (%) 81.25 • Rup 1.0 control (%) 93.75 • Growth Stage: 5-6 leaf stage • Conditions: hot and sunny • Volume rate: 200 L ha^−1

[12] = 2 weeks after treatment, 0% no injury, 100% plant death

Compound: O=C(O)CNCP(=O)(O)O [glyphosate (ROUNDUP ®)]
- Control (%) [1]: 50%
- Control (%) ([2]; Trial 1: glyphosate (ROUNDUP) 0.5 L/ha): 12%

Compound: O=C(O)CNCP(=O)(O)O [Glyphosate, N-phosphonomethylglycine]
- resistant callus initiation of infected embryos [3]: some embryos initiated resistant callus
- % Visual Injury (GAT-HRA soybeans; Event # 59, Line # 21): 40%
- % Visual Injury (GAT-HRA soybeans; Event # 59, Line # 28): 37%
- % Visual Injury (GAT-HRA soybeans; Event # 59, mean): 38%
- % Visual Injury (GAT-HRA soybeans; Event # 60, Line # 07): 19%
- % Visual Injury (GAT-HRA soybeans; Event # 60, Line # 11): 11%
- % Visual Injury (GAT-HRA soybeans; Event # 60, Line # 22): 11%
- % Visual Injury (GAT-HRA soybeans; Event # 60, Line # 35): 9%
- % Visual Injury (GAT-HRA soybeans; Event # 60, Line # 41): 13%
- % Visual Injury (GAT-HRA soybeans; Event # 60, Line # 46): 20%
- % Visual Injury (GAT-HRA soybeans; Event # 60, Line # 70): 9%
- % Visual Injury (GAT-HRA soybeans; Event # 60, Line # 75): 14%
- % Visual Injury (GAT-HRA soybeans; Event # 60, Line # 77): 19%
- % Visual Injury (GAT-HRA soybeans; Event # 60, Line # 79): 18%
- % Visual Injury (GAT-HRA soybeans; Event # 60, Line # 82): 20%
- % Visual Injury (GAT-HRA soybeans; Event # 60, Line # 84): 22%
- % Visual Injury (GAT-HRA soybeans; Event # 60, mean): 15%
- % Visual Injury (GAT-HRA soybeans; Event # 61, Line # 02): 10%
- % Visual Injury (GAT-HRA soybeans; Event # 61, Line # 02B): 10%
- % Visual Injury (GAT-HRA soybeans; Event # 61, Line # 05): 11%
- % Visual Injury (GAT-HRA soybeans; Event # 61, Line # 14): 10%
- % Visual Injury (GAT-HRA soybeans; Event # 61, Line # 18): 10%
- % Visual Injury (GAT-HRA soybeans; Event # 61, Line # 24): 60%
- % Visual Injury (GAT-HRA soybeans; Event # 61, Line # 33): 84%
- % Visual Injury (GAT-HRA soybeans; Event # 61, Line # 34): 23%
- % Visual Injury (GAT-HRA soybeans; Event # 61, Line # 47): 15%
- % Visual Injury (GAT-HRA soybeans; Event # 61, Line # 49): 9%
- % Visual Injury (GAT-HRA soybeans; Event # 61, Line # 51): 10%
- % Visual Injury (GAT-HRA soybeans; Event # 61, Line # 60): 16%
- % Visual Injury (GAT-HRA soybeans; Event # 61, Line # 62): 6%
- % Visual Injury (GAT-HRA soybeans; Event # 61, Line # 99): 10%
- % Visual Injury (GAT-HRA soybeans; Event # 61, mean): 20%
- % Visual Injury (GAT-HRA soybeans; Event # 64, Line # 41): 20%
- % Visual Injury (GAT-HRA soybeans; Event # 64, Line # 47): 10%
- % Visual Injury (GAT-HRA soybeans; Event # 64, mean): 14%
- % Visual Injury ([4]; STS ®, Line # 25): 100%
- % Visual Injury ([4]; STS ®, Line # 46): 100%
- % Visual Injury ([4]; STS ®, mean): 100%
- % Visual Injury ([4]; Wild Type, Line # 82): 100%
- % Visual Injury ([4]; Wild Type, Line Jack): 100%
- % Visual Injury ([4]; Wild Type, mean): 100%
- % Visual Injury Parent elite stiff stalk inbred [5, 12]: 100%
- Fresh Weight (g) Parent elite stiff stalk inbred ([5]; applied two weeks after planting, fresh shoots 2 weeks after treatment, untreated 76.4 g): 1.0 g
- callus growth ([6]; media with 1.0 and 2.0 mM glyphosate): very little callus growth
- embryos showing callus initiation ([6]; medium with 0.5 mM glyphosate): about half of the embryos
- % Visual Injury Heterozygous GAT-HRA [7, 12]: 10%
- Fresh Weight (g) Heterozygous GAT-HRA ([7]; applied two weeks after planting, fresh shoots 2 weeks after treatment, untreated 98.8 g): 97.4 g
- effect on untransformed Coker 312 control plants [8]: dead
- GAT-HRA transgenic plants with no deleterious symptoms [9]: approximately 50%
- plants killed ([2]; glyphosate on its own, 10-15 leaf stage, 200 L ha^-1): 1 out of 16 plants

Compound: O=C(O)CNCP(=O)(O)O [glyphosate (SCAT ®)]
- Control (%) [10]: 34%
- Control (%) [11]: 94%

From patent publication US20080234130A1, “Compositions providing tolerance to multiple herbicides and methods of use thereof” (priority 2005, published 2008)
